From a melting point compilation (Tetko et al.; mined from patent text by program, amines drawn as free bases though some values may be those of a salt) come the findings set out here.

`CC1CCCN(c2cc(F)cc(C(=O)Nc3ccc(OCCN4CCOCC4)c4ccccc34)c2)C1` (centres undefined) displayed a melting point of 145 to 148 °C. For `Oc1ccc2c(c1CNc1ccccc1)CCCO2` the value was 105 to 107 °C.

On to `CC(C)(C)c1nc2cc(N3CCN(S(C)(=O)=O)CC3)c(N=C=S)cc2s1`, for which the melting point lay in the range of 128 to 130 °C.

The compound `CN(C(=O)c1ccnc(Cl)c1)c1ccccc1N1CCN(C(=O)OC(C)(C)C)CC1` displayed a melting point of 59 to 61 °C. For `COc1ccc(C2=NN(C3CCN(S(=O)(=O)Cc4ccccc4)CC3)C(=O)CC2)cc1OC` the value was 114 °C; for `CC(C)n1c(-c2ccc(F)cc2)c(/C=C/C(=O)O)c2ccccc2c1=O`, 233 to 234 °C; for `O=Cc1ccc(Oc2ccc3c(c2)OCO3)cc1`, 67 to 70 °C. For `COC(=O)c1cccc(Oc2cccc(-c3nn(Cc4ccc(C(F)(F)P(=O)(O)O)c(F)c4)c(=Nc4ccc(Cl)c(Cl)c4)s3)c2)c1` the value was 137 to 139 °C. With `O=C(O)C1=Cc2cc(OCc3ccc(F)cc3)ccc2S(=O)(=O)CC1` the figure was 270 to 273 °C. Compound `Cc1cccc(NC(=O)NC2N=C(c3ccccc3F)c3ccccc3N(Cc3ncccc3C(N)=O)C2=O)c1` (racemic) returned a melting point of 203 °C.

In the case of `O=C(NN1CCCCC1)c1cc(Oc2c(F)cc(C(F)(F)F)cc2Cl)ccc1[N+](=O)[O-]`, the melting point fell in the range of 65 to 68 °C. For `CC1CCN(c2ccc(Nc3ncc4c(n3)SCC(=O)N4)cc2)CC1` the value was 278 to 280 °C. The compound `O=C(C=Cc1cc(F)cc(F)c1)c1cnc2sc3c(n12)CCCCC3` registered a melting point of 207 to 209 °C. Compound `N#Cc1c(N2CCN(C(=O)c3cccs3)CC2)c2sccc2[nH]c1=O` yielded a melting point of 293 °C. Compound `O=C(O)COc1cccc2c1Cc1sc(SCC=Cc3ccccc3)nc1-2` yielded a melting point of 172 to 174 °C.

Consider `CC1(C)Cc2nc(C3CCCC3)c(C(=O)c3ccc(C(F)(F)F)cc3)c(-c3ccc(F)c(F)c3)c2C(O)C1` (centres undefined), for which the melting point was in the range of 166 to 168 °C. Consider `COc1cc2c(=O)ccn(C)c2cc1OC`, for which the melting point is 169 to 173 °C. For the compound `CNC1=C(C#N)C(c2ccc(Cl)c([N+](=O)[O-])c2)c2ccc3ccccc3c2O1` (centres undefined), the melting point is 278 to 279 °C. With `COc1cccc(CC(=O)O)c1OCCCc1cn(-c2cc(C(F)(F)F)ccn2)nc1C(C)C` the figure was 127 to 128 °C; with `CC(C)(C(=O)c1ccccc1)S(=O)(=O)c1ccccc1`, 70 °C. For `NS(=O)(=O)c1ccn2c1C(=O)OCC2` the value was 204 to 206 °C; for `Cc1cccc(C)c1COc1cc(C(=O)O)cc2c1nc(C)n2C`, 285 to 286 °C. Take `CC(C)c1nc(C(C)C)c(C(O)c2ccccc2)c(-c2ccc(F)cc2)c1CO` (centres undefined): the melting point lay within 202 to 204 °C. Compound `Cc1ccccc1-c1cc(N2CCN(C(=O)CO)CC2)ncc1C(=O)N(C)Cc1cc(C(F)(F)F)cc(C(F)(F)F)c1` displayed a melting point of 91 to 93 °C. For `CCN(CC)CCNC(=O)c1cnc2ccc(I)cc2c1Cl` the value was 76 to 78 °C. With `N#Cc1ccc(Cc2ccc(O)cc2)cc1` the figure was 163 to 164 °C; with `N#Cc1cc(C(=O)N2CCC[C@H](c3nc(-c4ccc(F)cc4)no3)C2)ccc1F`, 144 to 146 °C; with `CC(=NNc1ccc(C(F)(F)F)cc1)C(=O)O`, 190 to 191 °C. On to `Oc1ccc(NCC2Cc3ccccc3C2)cc1`, for which the melting point was 106 to 109 °C. With `COC(=O)C1=C(O)c2ccc(F)cc2S(=O)(=O)N1C` the figure was 191 °C; with `Cc1cc(-c2cccc(C#N)c2)c(C(=O)NCCN2CCOCC2)c(C)n1`, 158 to 161 °C; with `C=C(CNc1ccc2ncnc(Nc3cccc(Br)c3)c2c1)C(=O)OC`, 157 to 162 °C.

Consider `O=C(O)c1ccc(C(c2ccccc2)(c2ccc(C(=O)O)c(C(=O)O)c2)C(F)(F)F)cc1C(=O)O`, for which the melting point lay in the range of 210 to 213 °C.

For the compound `Oc1nn(-c2ccccc2)nc1Cl`, the melting point is 135 to 140 °C. Compound `COc1ccc(C(=O)Cc2ccccc2)c([N+](=O)[O-])c1O` returned a melting point of 176 to 177 °C. In turn, `O=C(Nc1ccccc1C(F)(F)F)c1ccc([N+](=O)[O-])cc1` yielded a melting point of 126 °C. With `CCOC(=O)Oc1ccc(/C=C(\C)c2ccc3c(c2)SC(C)(C)S3)cc1` the figure was 93 to 94 °C; with `Cc1cc(N)cnc1-c1ccccc1`, 93 to 98 °C. On to `N#Cc1cnc2n(c1=O)CCCCC2`, for which the melting point is 125 °C. For `C=C(C)N(C(=C)C)C(=O)C(C)Oc1cc(-c2ccccc2)nc2ccccc12` (centres undefined) the value was 110 °C; for `CCN(CC)CC(O)CNC(=O)c1c(OC)c2ccccc2n1-c1ccccc1` (centres undefined), 148 to 150 °C.

Consider `CCOC(=O)Cc1c(C)n(Cc2ccc3ccccc3c2)c2ccc(OCc3csc(-c4ccccc4)n3)cc12`, for which the melting point lay in the range of 118 to 119 °C. `O=C(Nc1ccc(SC(F)(F)F)c(Cl)c1)c1cc(Cl)c2ccccc2c1O` returned a melting point of 148 to 149 °C. On to `CCOc1ccccc1C(=O)Nc1cccc(C)c1C(N)=O`, for which the melting point is 166 to 168 °C. `O=C(O)CO[C@@H]1CCCC[C@H]1NC(=S)Nc1ccccc1` (relative stereo) showed a melting point of 147 to 149 °C. As to `COC=C(C(=O)OC)c1ccccc1`, the melting point was in the range of 37 to 38 °C. The compound `Cn1nc2c(N)nc3ccccc3c2c1CC(C)(C)NC(=O)c1ccccc1` registered a melting point of 194 to 196 °C. For `COC(=O)CN(C)c1nc(-c2ccc(Cl)c(Cl)c2)cs1` the value was 88 to 89 °C.

The compound `C=CCn1c(SC(Cl)=C(Cl)C#N)nnc1C(F)(F)F` registered a melting point of 45 to 48 °C. For `CCCc1c(OCCCCc2nc3ccc(C(=O)O)cc3[nH]2)ccc(C(C)=O)c1O` the value was 98 to 100 °C; for `CC(=O)Nc1ccc2c(c1)C(=O)N(c1ccc3c(ccn3C)c1)C2`, 275 to 280 °C. For `Cc1cc([N+](=O)[O-])c(OCc2ccccc2)c(Cl)c1C` the value was 74 to 75 °C; for `O=C1CCC2=C1C(c1ccc(F)c(Br)c1)C1=C(CCCCS1)N2` (centres undefined), 210 °C.

As to `NC(C=Cc1ccc(Cl)cc1)=NO`, the melting point is 102 to 104 °C. With `CC(C)S(=O)(=O)Nc1ccc([C@@H](C)C(=O)N[C@@H](C)C(N)=O)cc1` the figure was 132 to 135 °C; with `O=c1ccc(-c2cccc(-c3ccc(=O)[nH]n3)c2)n[nH]1`, over 250 °C.

Take `CC(O)(CCN1CCOCC1)c1ccc(-c2ccc(Br)cc2)cc1` (centres undefined): the melting point lay within 97 to 99 °C. For `O=Cc1ccc2ccccc2c1OCc1ccccc1` the value was 62 to 63 °C; for `Cc1c(C(F)(F)F)ncn(-c2cc([N+](=O)[O-])c(F)cc2F)c1=O`, 157 °C; for `Fc1cc(CCl)c(F)cc1CCl`, 62.5 to 64.5 °C. For `CN(C)c1ccc(NC(=O)Cn2c(-c3ccc(Cl)cc3)nc3cccnc32)cc1` the value was 245 to 246 °C. With `O=C(Cn1c2c(c3ccccc31)CCNCC2)Nc1cccnc1`, the melting point lay within 138 to 140 °C. The compound `CC(=O)c1oc2c(sc3ccccc32)c1O` had a melting point of 196 to 197 °C. Regarding `Cc1ccc(C(=O)N2CC3CC2CN3c2nc(-c3ccncc3)cc(=O)n2C)cc1` (centres undefined), the melting point fell in the range of 118 to 120 °C. Compound `CCCCOc1c(CNC(=O)OC(C)(C)C)n(CC2CC2)c(=O)c2ccc(C(=O)O)cc12` returned a melting point of 197 to 198 °C. For `CC1Cc2c(n(-c3ccccc3)c3ncccc3c2=O)O1` (centres undefined) the value was 207 to 209 °C; for `O=C(NC(CCc1ccccc1)c1nnco1)c1ccc2[nH]c(-c3ccncc3)nc2c1` (centres undefined), 103 °C. For `O=C1CCCc2cc(=O)[nH]cc21` the value was 246 to 248 °C. As for `COC(CC#N)=NC#N`, the melting point is 45.5 °C. The compound `CN1CC=C(c2cc3cc(Cl)ccc3o2)CC1` displayed a melting point of 108 to 118 °C. As for `Cc1ccc(-c2cc(C#N)c[nH]2)cc1`, the melting point was in the range of 169 to 171 °C. For `COC(=O)c1ccc(N=C2NCCN2)c(C)c1` the value was 193 to 194 °C.

For `Cn1c(OC2CCOC2)nn(C(=O)NS(=O)(=O)c2ccccc2Br)c1=O` (centres undefined), the melting point is 191 °C. For `CN(C)c1cccc(/C=C/c2c(F)cccc2F)c1` the value was 69 to 71 °C. For `COc1nc(NC(=O)NS(=O)(=O)c2ccccc2OC(F)F)nc(OCC(F)(F)F)n1` the value was 155 to 157 °C; for `CNc1nn(C(=O)NC(C)C(C)Cc2ccc(Cl)cc2)c(=O)n1C` (centres undefined), 222 to 224 °C. As to `CCSC1=NCC(=O)N1c1ccc(F)cc1`, the melting point fell in the range of 114 to 115 °C. As for `Cc1cc(C)c2c(c1C)OC(C)(C)C2c1ccc(F)cc1` (centres undefined), the melting point is 109 to 110 °C.

In turn, `CN(C)C(=O)C(C)(C)c1ccccc1` gave a melting point of 57 to 59 °C.

`COc1ncccc1C(=O)NC1CN(C)CCn2c1nc(-c1ccncn1)cc2=O` (racemic): the melting point was 228 to 230 °C.

As for `CC1(Cl)CSC2C(NC(=O)Cc3ccccc3)C(=O)N2C1C(=O)OCc1ccc([N+](=O)[O-])cc1` (centres undefined), the melting point was 134 to 136 °C. Regarding `COc1ccc(C(=O)Cc2cc(OC)cc(Br)c2OC)cc1`, the melting point lay within 91 to 93 °C. With `CCOC(=O)c1ccc(N2CCC(NC[C@H](O)COc3ccc(O)c(S(C)(=O)=O)c3)CC2)cc1` the figure was 83 to 85 °C; with `Cc1nc(-c2cn(Cc3ccc(F)cc3)nn2)sc1C(=O)NCc1cccnc1`, 212 to 213 °C. Compound `NC(=O)c1cc(N)ccc1SSc1ccc(N)cc1C(N)=O` showed a melting point of 188 to 190 °C. For `O=C1OC(=O)c2c1ccc1sc3ccccc3c21`, the melting point lay within 248 to 250 °C. For `COc1cccc(-c2ccc3c(c2)c(C(=O)C(=O)O)cn3Cc2ccc(C(C)(C)C)cc2)c1` the value was 86 to 87 °C; for `CCCCCCCN1C(=O)C2CC(c3ccc(N)cc3)(C2)C1=O`, 69 to 71 °C. For `C=CCON=C(C(=O)OCC)c1csc(NC(c2ccccc2)(c2ccccc2)c2ccccc2)n1` the value was 130 to 132 °C.

As a reminder, the melting point is the temperature of the solid-liquid transition.
